Measurements reported in patent publication US20230293560A1, “METHOD FOR MODULATING THE BLADDER MICROBIOME TO IMPROVE BLADDER HEALTH” (Kimberly-Clark Worldwide, Inc., priority 2020, published 2023).
Values joined by “and” are separate entries in the source; they are usually repeats but may differ in a detail not shown here. Equal values may be shown once.

What was measured:
[1] = tested on: S. anginosus, KC18-1131-3B, Bladder (Sa-2); type: cell-based; settings: Table 6, prebiotic 2%, one line per replicate; for Sa-2 MRS Δ / Sa-2 TSA Δ: change vs start, background growth in CHL media subtracted; for Sa-2 MRS Δ: MRS agar; for Sa-2 MRS end / Sa-2 TSA end: competition Sa-2 vs Lc-3, 48 hours; for Sa-2 MRS end: anaerobic, enumerated on MRS agar; for Sa-2 TSA end: enumerated on TSA
Description: (§1) Further testing was conducted to put the prebiotic compounds in competition assay testing, as further described in the test methods section herein. In the competition assay testing, each competition involved testing a single prebiotic compound with the commensal bacteria species of L. crispatus, KC18-1173-1, Bladder (“Lc-3”—Table 2) against the pathogenic bacterial species of S. anginosus, KC18-1131-3B, Bladder (“Sa-2”—Table 2).
(§2) • 1. An in house bacterial agar was created based on MRS agar (Kaplan and Hutkins, 2000) where the glucose is substituted for the prebiotic to be tested (either dextran MW ˜6,000, alpha-cyclodextrin, glucomannan, or pectin), bromocresol purple was included as a pH indicator. • 2. Bacteria were enumerated on each agar and color changes were recorded. Method for Competition Assay (Modified from “In Vitro Evaluation of Nutrients that Selectively Confer a Competitive Advantage to Lactobacilli” Vongsa et al, Beneficial Microbes 2016) • 1. Create 2% w/v stock of prebiotic or positive control (glucose/dextrose) as described above. • 2. From a freezer stock subculture the bacteria twice into De Man, Rogosa and Sharpe (MRS) broth (BD Difco, Becton Dickinson, Franklin Lakes, NJ), 37° C., stationary, anaerobic, overnight. • 3. From the last subculture, plate onto an MRS agar plate for L. crispatus KC18-1173-1 or blood agar for S. anginosus KC18-1131-3B, grow 37° C., stationary, anaerobic, overnight. • 4. Create a bacterial suspension by using a sterile tipped swab to transfer colonies of bacteria into a PBS suspension blank to a 2 MacFarland for both species. • 5. Enumerate the starting culture. • 6. Add 9.8 mL of prebiotic media into a 15 mL conical tube. • 7. Add 100 μL of the diluted bacteria to the media, incubate at 37° C., anaerobic, 48 hours. • 8. Harvest 100 μL from the tube containing the prebiotic and plate onto MRS agar and tryptic soy agar (TSA). • 9. Enumerate the bacteria on the MRS agar (both the L. crispatus and the S. anginosus). Small colonies are counted as S. anginosus and large colonies are counted as L. crispatus. • 10. Enumerate the bacteria on the TSA plate. […] Growth of the bacteria in the negative control (CHL media without prebiotic) was subtracted from the growth in the presence of the prebiotic or formulation.

[2] = tested on: L. crispatus, KC18-1173-1, Bladder (Lc-3); assay: Competition assay, L. crispatus recovered; type: cell-based, Lactobacillus crispatus; settings: Table 6, prebiotic 2%, one line per replicate; for Lc-3 MRS Δ: change vs start, background growth in CHL media subtracted, MRS agar; for Lc-3 MRS end: competition Sa-2 vs Lc-3, 48 hours, enumerated on MRS agar
Description: as §1, §2

[3] = tested on: ratio of L. crispatus/S. anginosus; assay: Therapeutic effect protocol (competition assay); type: cell-based, Lactobacillus crispatus; Streptococcus anginosus; settings: Table 6; prebiotic 2%; Lc-3 vs Sa-2
From the text: As used herein, the term “therapeutic effect” refers to the ability of the compositions and formulations of the present disclosure to stimulate the growth of L. crispatus relative S. anginosus measured according to the therapeutic effect protocol described below. The therapeutic effect can be expressed as a ratio of L. crispatus to S. anginosus and is desirably greater than about 100, more preferably greater than about 500 and more desirably greater than about 1,000.
as §1, §2
Colonies of L. crispatus and S. anginosus were tested against in the competition method assay test method as described above. The therapeutic effect was calculated by comparing the colony forming units recovered after the competition assay of both L. crispatus and S. anginosus and calculating the ratio of L. crispatus/S. anginosus. A larger number indicates an increase in L. crispatus and/or a decrease in S. anginosus and a smaller number indicates a decrease in L. crispatus and/or an increase in S. anginosus.

[4] = tested on: commensal and pathogenic bacterial species; assay: Prebiotic screening, summary in words across species; type: cell-based; settings: commensal (L. crispatus, L. gasseri, L. jensenii) and pathogenic (S. anginosus, E. faecalis) species
Description: Most of the prebiotic compounds were initially tested in a high throughput assay screening process, described further in the Test Methods section herein, but three prebiotics (as noted in Table 3) were tested using a plate assay screening process as described in the Test Methods section herein. The prebiotics were tested against the commensal bacterial species of Lactobacillus crispatus, Lactobacillus gasseri, and Lactobacillus jensenii and against the pathogenic bacterial species of Streptococcus anginosus and Enterococcus faecalis as shown in Table 2. The bacterial species were taken from different sources, listed as culture collection, bladder, and vagina.
The results of the assay plate screening of the prebiotic compounds of Table 1 against the bacterial species of Table 2 is documented in Table 3 with the results being described by the following legend: • ++ if growth and fermentation was equal to or greater than the positive control • + if growth and fermentation was less than the positive control • […] if weak or no growth or fermentation • NT if not tested Some codes were not tested based on the use or non-use by the bacteria, as a way to efficiently move through the assay plate screening to the competition assay, described below.
• 1. Create a 2% w/v stock of prebiotic or positive control (glucose/dextrose) to be tested in API 50 CHL media (Biomerieux, Marcy-I'Étoile, France). API 50 CHL media contains minimal amounts of carbon for growth, and a bromocresol purple as a pH indicator of fermentation. Filter sterilize media with a […]. Store at 4-6° C. until use. • 2. Add 180 μL of media containing the prebiotic to a sterile, flat bottom 96-well microtiter plate (Corning, Corning, NY). • 3. From a freezer stock subculture the bacteria twice into De Man, Rogosa and Sharpe (MRS) broth (BD Difco, Becton Dickinson, Franklin Lakes, NJ), 37° C., stationary, anaerobic, overnight. • 4. From the last subculture, plate onto an MRS agar plate (Teknova, Hollister, CA) and grow 37° C., stationary, anaerobic, overnight. • 5. Create a bacterial suspension by using a sterile tipped swab to transfer colonies of bacteria into a PBS suspension blank to a 0.5 MacFarland (S. anginosus or E. faecalis) or a 1 MacFarland (Lactobacillus species) from the MRS agar plate. • 6. Enumerate the starting culture. • 7. Inoculate the media alone and media containing the prebiotic or positive control with 20 μL of the bacterial suspension. • 8. Place the plate into a spectrophotometer (Molecular Devices, San Jose, CA) and read the plate every 20 minutes for 24-48 hours. Read wavelengths (OD 430, OD 590, and OD 660). A color change to yellow caused by a drop in pH will be read by an increase in the OD430 value and a decrease in the OD590 value and is indicative of bacterial fermentation. An increase in OD660 values is indicative of an increase in turbidity and bacterial growth.
• 1. An in house bacterial agar was created based on MRS agar (Kaplan and Hutkins, 2000) where the glucose is substituted for the prebiotic to be tested (either dextran MW ˜6,000, alpha-cyclodextrin, glucomannan, or pectin), bromocresol purple was included as a pH indicator. • 2. Bacteria were enumerated on each agar and color changes were recorded. Method for Competition Assay (Modified from “In Vitro Evaluation of Nutrients that Selectively Confer a Competitive Advantage to Lactobacilli” Vongsa et al, Beneficial Microbes 2016) • 1. Create 2% w/v stock of prebiotic or positive control (glucose/dextrose) as described above. • 2. From a freezer stock subculture the bacteria twice into De Man, Rogosa and Sharpe (MRS) broth (BD Difco, Becton Dickinson, Franklin Lakes, NJ), 37° C., stationary, anaerobic, overnight. • 3. From the last subculture, plate onto an MRS agar plate for L. crispatus KC18-1173-1 or blood agar for S. anginosus KC18-1131-3B, grow 37° C., stationary, anaerobic, overnight. • 4. […]

| SMILES | Sa-2 MRS Δ [1] | Sa-2 TSA Δ [1] | Sa-2 MRS end [1] | Sa-2 TSA end [1] | Lc-3 MRS Δ [2] | Lc-3 MRS end [2] | Therapeutic Effect (ratio of L. crispatus/S. anginosus) [3] | overall outcome of the screening of Table 3, in words [4] |
| --- | --- | --- | --- | --- | --- | --- | --- | --- |
| O=CC[C@H](O)[C@H](O)CO [2-Deoxy-D-Ribose] | −2.41 Log CFU/mL and −1.26 Log CFU/mL | −0.63 Log CFU/mL and −0.23 Log CFU/mL | 4.29 Log CFU/mL and 5.59 Log CFU/mL | 6.22 Log CFU/mL and 6.90 Log CFU/mL | −5.22 Log CFU/mL and −1.90 Log CFU/mL | 0 Log CFU/mL and 4.18 Log CFU/mL | 6.03E−07 (2×) and 1.91E−03 (2×) | not able to provide growth for most, if not all, commensal and pathogenic bacterial species |
| O=C[C@@H](O)[C@H](O)[C@H](O)CO [D-Arabinose] | −0.27 Log CFU/mL and −0.47 Log CFU/mL | −0.46 Log CFU/mL and −0.32 Log CFU/mL | 6.43 Log CFU/mL and 6.38 Log CFU/mL | 6.39 Log CFU/mL and 6.81 Log CFU/mL | −0.13 Log CFU/mL and −0.23 Log CFU/mL | 5.00 Log CFU/mL and 5.85 Log CFU/mL | 4.07E−02 (2×) and 1.10E−01 (2×) | not able to provide growth for most, if not all, commensal and pathogenic bacterial species |
| OC[C@@H](O)[C@@H](O[C@H]1O[C@H](CO)[C@@H](O)[C@H](O)[C@H]1O)[C@H](O)[C@@H](O)CO [Maltitol] | −0.12 Log CFU/mL and −0.37 Log CFU/mL | 0.41 Log CFU/mL and 0.47 Log CFU/mL | 6.58 Log CFU/mL and 6.48 Log CFU/mL | 7.26 Log CFU/mL and 7.6 Log CFU/mL | 0.35 Log CFU/mL and −0.08 Log CFU/mL | 5.48 Log CFU/mL and 6.00 Log CFU/mL | 1.66E−02 (2×) and 2.51E−02 (2×) | not able to provide growth for most, if not all, commensal and pathogenic bacterial species |
| O=C(CO)[C@@H](O)[C@H](O)[C@H](O)CO[C@H]1O[C@H](CO)[C@@H](O)[C@H](O)[C@H]1O [Palatinose Hydrate, 6-O-α-D-Glucopyranosyl-D-fructose] | −1.69 Log CFU/mL and −1.90 Log CFU/mL and −1.82 Log CFU/mL | −2.39 Log CFU/mL and −2.07 Log CFU/mL and −0.79 Log CFU/mL and −2.32 Log CFU/mL | 5.16 Log CFU/mL and 4.47 Log CFU/mL and 4.88 Log CFU/mL | 4.74 Log CFU/mL and 4.56 Log CFU/mL and 5.73 Log CFU/mL and 4.53 Log CFU/mL | 2.93 Log CFU/mL and 2.26 Log CFU/mL and 3.24 Log CFU/mL and 1.90 Log CFU/mL | 7.97 Log CFU/mL and 8.00 Log CFU/mL and 8.37 Log CFU/mL and 7.98 Log CFU/mL | 1.74E+03 (2×) and 2.57E+03 (2×) and 3.29E+03 (2×) and 6.92E+03 (2×) | – |
| O=C(CO)[C@@H](O)[C@H](O)[C@H](O)CO[C@H]1O[C@H](CO)[C@@H](O)[C@H](O)[C@H]1O [Palatinose PST-N] | −2.08 Log CFU/mL and −1.53 Log CFU/mL | −2.11 Log CFU/mL and −1.03 Log CFU/mL | 4.29 Log CFU/mL and 5.16 Log CFU/mL | 4.52 Log CFU/mL and 5.49 Log CFU/mL | 3.42 Log CFU/mL and 2.48 Log CFU/mL | 8.46 Log CFU/mL and 8.22 Log CFU/mL | 8.71E+03 (2×) and 5.80E+03 (2×) | – |
| O=C(CO)[C@@H](O)[C@H](O)[C@H](O)CO[C@H]1O[C@H](CO)[C@@H](O)[C@H](O)[C@H]1O [Palatinose PST-PA] | −1.63 Log CFU/mL | −0.56 Log CFU/mL and −1.23 Log CFU/mL | 5.06 Log CFU/mL | 6.07 Log CFU/mL and 5.29 Log CFU/mL | 3.25 Log CFU/mL and 1.94 Log CFU/mL | 8.29 Log CFU/mL and 7.68 Log CFU/mL | 1.66E+02 (2×) and 1.50E+02 (2×) | – |
| O=C(CO)[C@@H](O)[C@H](O)[C@H](O)CO[C@H]1O[C@H](CO)[C@@H](O)[C@H](O)[C@H]1O [Palatinose PST-PF] | −1.28 Log CFU/mL | −2.68 Log CFU/mL and −0.94 Log CFU/mL | 5.41 Log CFU/mL | 3.95 Log CFU/mL and 5.58 Log CFU/mL | 3.02 Log CFU/mL and 2.16 Log CFU/mL | 8.06 Log CFU/mL and 7.90 Log CFU/mL | 1.29E+04 (2×) and 1.41E+04 (2×) | – |
